{
  "source": "PubChem BioAssay AID1918948",
  "about": "(Molecular Pharmacology Branch, DTP, NCI, 2023)",
  "test_system": "K-562 leukemia growth, % test/control",
  "test": "Anticancer human tumor K-562 cell line growth inhibition;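 note: spheroids exposed to compounds for 7 days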;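 for viability, T/C: 100% = DMSO vehicle wells and lower values mean fewer viable cells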",
  "conditions": "spheroids with HUVEC and MSC; for IC50: curve of first compound; for viability, T/C: stronger effect = lower value",
  "in_short": "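Drug combinations with the LSD1 inhibitor iadademstat tested on tumor cells co-cultured as spheroids with endothelial cells and mesenchymal stem cells. Concentrations descended in half-log increments from clinical Cmax or 10 microM.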",
  "key": {"[1]": {"conditions": "second compound 0.1 µM, first compound 0.0316 µM"}, "[2]": {"conditions": "second compound 0.1 µM, first compound 0.1 µM"}, "[3]": {"conditions": "second compound 0.1 µM, first compound 0.316 µM"}, "[4]": {"conditions": "second compound 0.1 µM, first compound 1 µM"}, "[5]": {"conditions": "second compound 0.316 µM, first compound 0.0316 µM"}, "[6]": {"conditions": "second compound 0.316 µM, first compound 0.1 µM"}, "[7]": {"conditions": "second compound 0.316 µM, first compound 0.316 µM"}, "[8]": {"conditions": "second compound 0.316 µM, first compound 1 µM"}, "[9]": {"conditions": "second compound 1 µM, first compound 0.0316 µM"}, "[10]": {"conditions": "second compound 1 µM, first compound 0.1 µM"}, "[11]": {"conditions": "second compound 1 µM, first compound 0.316 µM"}, "[12]": {"conditions": "second compound 1 µM, first compound 1 µM"}, "[13]": {"conditions": "second compound 3.16 µM, first compound 0.0316 µM"}, "[14]": {"conditions": "second compound 3.16 µM, first compound 0.1 µM"}, "[15]": {"conditions": "second compound 3.16 µM, first compound 0.316 µM"}, "[16]": {"conditions": "second compound 3.16 µM, first compound 1 µM"}, "[17]": {"conditions": "second compound 10 µM, first compound 0.0316 µM"}, "[18]": {"conditions": "second compound 10 µM, first compound 0.1 µM"}, "[19]": {"conditions": "second compound 10 µM, first compound 0.316 µM"}, "[20]": {"conditions": "second compound 10 µM, first compound 1 µM"}},
  "note": "Where “and” joins values, the source holds several entries; their conditions need not be identical. Equal entries are not always repeated.",
  "data": [
    {"compound": "CC(C)c1c(-c2ccccc2)nc2c(C#N)c[nH]n2c1=O", "note": "+ NC1CCC(NC2CC2c2ccccc2)CC1", "values": [
      {"measurement": "IC50", "setting": "second compound 0.1 µM", "result": "> 10000", "unit": "nM"},
      {"measurement": "IC50", "setting": "second compound 0.316 µM", "result": "> 10000", "unit": "nM"},
      {"measurement": "IC50", "setting": "second compound 1 µM", "result": "> 10000", "unit": "nM"},
      {"measurement": "IC50", "setting": "second compound 3.16 µM", "result": "> 10000", "unit": "nM"},
      {"measurement": "IC50", "setting": "second compound 10 µM", "result": "> 10000", "unit": "nM"},
      {"measurement": "viability, T/C", "setting": "[1]", "result": 98.7, "unit": "%"},
      {"measurement": "viability, T/C", "setting": "[2]", "result": 95.2, "unit": "%"},
      {"measurement": "viability, T/C", "setting": "[3]", "result": 96.6, "unit": "%"},
      {"measurement": "viability, T/C", "setting": "[4]", "result": 100, "unit": "%"},
      {"measurement": "viability, T/C", "setting": "second compound 0.1 µM, first compound 3.16 µM", "result": 99.1, "unit": "%"},
      {"measurement": "viability, T/C", "setting": "second compound 0.1 µM, first compound 10 µM", "result": 98.9, "unit": "%"},
      {"measurement": "viability, T/C", "setting": "[5]", "result": 100, "unit": "%"},
      {"measurement": "viability, T/C", "setting": "[6]", "result": 101, "unit": "%"},
      {"measurement": "viability, T/C", "setting": "[7]", "result": 99.8, "unit": "%"},
      {"measurement": "viability, T/C", "setting": "[8]", "result": 98.6, "unit": "%"},
      {"measurement": "viability, T/C", "setting": "second compound 0.316 µM, first compound 3.16 µM", "result": 99.6, "unit": "%"},
      {"measurement": "viability, T/C", "setting": "second compound 0.316 µM, first compound 10 µM", "result": 98.9, "unit": "%"},
      {"measurement": "viability, T/C", "setting": "[9]", "result": 102, "unit": "%"},
      {"measurement": "viability, T/C", "setting": "[10]", "result": 102, "unit": "%"},
      {"measurement": "viability, T/C", "setting": "[11]", "result": 100, "unit": "%"},
      {"measurement": "viability, T/C", "setting": "[12]", "result": 99.4, "unit": "%"},
      {"measurement": "viability, T/C", "setting": "second compound 1 µM, first compound 3.16 µM", "result": 100, "unit": "%"},
      {"measurement": "viability, T/C", "setting": "second compound 1 µM, first compound 10 µM", "result": 101, "unit": "%"},
      {"measurement": "viability, T/C", "setting": "[13]", "result": 102, "unit": "%"},
      {"measurement": "viability, T/C", "setting": "[14]", "result": 102, "unit": "%"},
      {"measurement": "viability, T/C", "setting": "[15]", "result": 99.7, "unit": "%"},
      {"measurement": "viability, T/C", "setting": "[16]", "result": 102, "unit": "%"},
      {"measurement": "viability, T/C", "setting": "second compound 3.16 µM, first compound 3.16 µM", "result": 103, "unit": "%"},
      {"measurement": "viability, T/C", "setting": "second compound 3.16 µM, first compound 10 µM", "result": 100, "unit": "%"},
      {"measurement": "viability, T/C", "setting": "[17]", "result": 95.6, "unit": "%"},
      {"measurement": "viability, T/C", "setting": "[18]", "result": 98.7, "unit": "%"},
      {"measurement": "viability, T/C", "setting": "[19]", "result": 96.8, "unit": "%"},
      {"measurement": "viability, T/C", "setting": "[20]", "result": 97, "unit": "%"},
      {"measurement": "viability, T/C", "setting": "second compound 10 µM, first compound 3.16 µM", "result": 97.9, "unit": "%"},
      {"measurement": "viability, T/C", "setting": "second compound 10 µM, first compound 10 µM", "result": 98.4, "unit": "%"}
    ]},
    {"compound": "COc1cc(Nc2ncc3c(n2)-c2ccc(Cl)cc2C(c2c(F)cccc2OC)=NC3)ccc1C(=O)O", "note": "+ NC1CCC(NC2CC2c2ccccc2)CC1", "values": [
      {"measurement": "IC50", "setting": "second compound 0.1 µM", "result": 3.23, "unit": "nM"},
      {"measurement": "IC50", "setting": "second compound 0.316 µM", "result": 3.86, "unit": "nM"},
      {"measurement": "IC50", "setting": "second compound 1 µM", "result": 3.25, "unit": "nM"},
      {"measurement": "IC50", "setting": "second compound 3.16 µM", "result": 3.29, "unit": "nM"},
      {"measurement": "IC50", "setting": "second compound 10 µM", "result": "< 3.16", "unit": "nM"},
      {"measurement": "viability, T/C", "setting": "second compound 0.1 µM, first compound 0.00316 µM", "result": 51, "unit": "%"},
      {"measurement": "viability, T/C", "setting": "second compound 0.1 µM, first compound 0.01 µM", "result": 21.1, "unit": "%"},
      {"measurement": "viability, T/C", "setting": "[1]", "result": 20.4, "unit": "%"},
      {"measurement": "viability, T/C", "setting": "[2]", "result": 17.8, "unit": "%"},
      {"measurement": "viability, T/C", "setting": "[3]", "result": 14.6, "unit": "%"},
      {"measurement": "viability, T/C", "setting": "[4]", "result": 10.7, "unit": "%"},
      {"measurement": "viability, T/C", "setting": "second compound 0.316 µM, first compound 0.00316 µM", "result": 55.8, "unit": "%"},
      {"measurement": "viability, T/C", "setting": "second compound 0.316 µM, first compound 0.01 µM", "result": 22.6, "unit": "%"},
      {"measurement": "viability, T/C", "setting": "[5]", "result": 22, "unit": "%"},
      {"measurement": "viability, T/C", "setting": "[6]", "result": 19.3, "unit": "%"},
      {"measurement": "viability, T/C", "setting": "[7]", "result": 13.9, "unit": "%"},
      {"measurement": "viability, T/C", "setting": "[8]", "result": 11.1, "unit": "%"},
      {"measurement": "viability, T/C", "setting": "second compound 1 µM, first compound 0.00316 µM", "result": 51.4, "unit": "%"},
      {"measurement": "viability, T/C", "setting": "second compound 1 µM, first compound 0.01 µM", "result": 21, "unit": "%"},
      {"measurement": "viability, T/C", "setting": "[9]", "result": 23.4, "unit": "%"},
      {"measurement": "viability, T/C", "setting": "[10]", "result": 16.7, "unit": "%"},
      {"measurement": "viability, T/C", "setting": "[11]", "result": 13.1, "unit": "%"},
      {"measurement": "viability, T/C", "setting": "[12]", "result": 12.1, "unit": "%"},
      {"measurement": "viability, T/C", "setting": "second compound 3.16 µM, first compound 0.00316 µM", "result": 51.1, "unit": "%"},
      {"measurement": "viability, T/C", "setting": "second compound 3.16 µM, first compound 0.01 µM", "result": 21.3, "unit": "%"},
      {"measurement": "viability, T/C", "setting": "[13]", "result": 23.7, "unit": "%"},
      {"measurement": "viability, T/C", "setting": "[14]", "result": 21.4, "unit": "%"},
      {"measurement": "viability, T/C", "setting": "[15]", "result": 18.5, "unit": "%"},
      {"measurement": "viability, T/C", "setting": "[16]", "result": 12.1, "unit": "%"},
      {"measurement": "viability, T/C", "setting": "second compound 10 µM, first compound 0.00316 µM", "result": 46.5, "unit": "%"},
      {"measurement": "viability, T/C", "setting": "second compound 10 µM, first compound 0.01 µM", "result": 22.1, "unit": "%"},
      {"measurement": "viability, T/C", "setting": "[17]", "result": 25.6, "unit": "%"},
      {"measurement": "viability, T/C", "setting": "[18]", "result": 24.6, "unit": "%"},
      {"measurement": "viability, T/C", "setting": "[19]", "result": 19.9, "unit": "%"},
      {"measurement": "viability, T/C", "setting": "[20]", "result": 12.6, "unit": "%"}
    ]},
    {"compound": "Nc1ccn(C2OC(CO)C(O)C2(F)F)c(=O)n1", "note": "(stereo unspecified)", "values": [
      {"measurement": "viability, T/C", "setting": "compound 0.000949 µM", "result": "45.4% and 98.6%"},
      {"measurement": "viability, T/C", "setting": "compound 0.003 µM", "result": "18.2% and 91.7%"},
      {"measurement": "viability, T/C", "setting": "compound 0.00949 µM", "result": "14.6% and 51.5%"},
      {"measurement": "viability, T/C", "setting": "compound 0.03 µM", "result": "13.6% and 21%"},
      {"measurement": "viability, T/C", "setting": "compound 0.0949 µM", "result": "15.1% and 19.3%"},
      {"measurement": "viability, T/C", "setting": "compound 0.3 µM", "result": "13.9% and 16.9%"}
    ]}
  ]
}
